Test results from patent publication US9464064B2, “HCV helicase inhibitors and methods of use thereof” (University of Kansas, priority 2011, dated 2016).

Molecular target: T1, HCV NS3 helicase NS3h_1b(con1) (Hepatitis C virus genotype 1b, UniProt Q9WMX2)
T1 construct: truncated C-terminally His-tagged NS3 proteins lacking the N-terminal protease, called NS3h; His-tag (C); made in house
Experiment: MBHA screen of NCI mechanistic set library at 20 μM (percent inhibition, compound interference)
Assay type: biochemical
Conditions: compounds at 20 μM; for Inh. (%) (Inhibition): calculated from Equation 1
Method in brief: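 Molecular beacon-based DNA unwinding assay; compounds screened at 20 μM in triplicate, with DMSO-only negative and 500 nM dT20 positive controls. Fluorescence (ex 643/em 670 nm) was read before and 30 min after adding ATP to 1 mM. Percent inhibition came from the change relative to DMSO controls; interference from pre-ATP fluorescence versus DMSO controls.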

[1] = MBHA with DNA substrate, assay interference calculated with Equation 2
[2] = assay interference calculated with Equation 2 (fluorescence vs DMSO-only controls before ATP)

T1 sequence (Q9WMX2 1192-1657): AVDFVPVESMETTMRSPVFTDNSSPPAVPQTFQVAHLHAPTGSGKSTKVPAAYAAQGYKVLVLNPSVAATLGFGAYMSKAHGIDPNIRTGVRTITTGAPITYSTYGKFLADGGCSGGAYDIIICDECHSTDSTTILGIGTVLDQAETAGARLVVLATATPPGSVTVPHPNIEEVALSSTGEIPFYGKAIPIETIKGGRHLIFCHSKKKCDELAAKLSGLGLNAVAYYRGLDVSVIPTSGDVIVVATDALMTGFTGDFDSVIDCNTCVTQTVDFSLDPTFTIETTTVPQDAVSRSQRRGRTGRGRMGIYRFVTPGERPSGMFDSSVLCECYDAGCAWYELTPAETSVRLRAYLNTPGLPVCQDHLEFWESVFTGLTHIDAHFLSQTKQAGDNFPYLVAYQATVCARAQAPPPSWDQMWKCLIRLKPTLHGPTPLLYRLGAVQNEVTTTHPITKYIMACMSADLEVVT

Compound | Int.* (Ratio) (Interference) [1] | Inh. (%) (Inhibition) (MBHA with DNA substrate) | Inh. (%) (Inhibition) (MBHA with a DNA substrate) | Int.* (Ratio) (Interference) [2] | Inh. (%) (Inhibition) (MBHA with DNA substrate, 20 µM)
CO[C@@H]1[C@H](O)C[C@@H](O[C@@H]2C[C@H](Oc3cc4cc5c(c(O)c4c(O)c3C)C(=O)[C@@H](O[C@H]3C[C@@H](O[C@H]4C[C@@H](O[C@H]6C[C@](C)(O)[C@@H](OC(C)=O)[C@H](C)O6)[C@H](O)[C@@H](C)O4)[C@H](O)[C@@H](C)O3)[C@H]([C@H](OC)C(=O)[C@@H](O)[C@@H](C)O)C5)O[C@H](C)[C@@H]2OC(C)=O)O[C@@H]1C [Compound 58514] | 1.04 | 54.9 |  |  | 
CCCCCCCCCCCCCCCCOCC(O)CO (stereo not shown) [Compound 59269] | 0.96 | −9.7 |  |  | 
O=[n+]1c2c(n([O-])c3ccccc31)-c1cccc3cccc-2c13 [Compound 60309] | 0.93 | 13.6 |  |  | 
CC12C(=O)OC(=O)C1(C)C1CCC2O1 (stereo not shown) [Compound 61805] | 0.95 | −0.5 |  |  | 
CC[C@@]12CCCN3CC[C@]4(c5cccc(OC)c5N(C(C)=O)[C@@H]4CC1)[C@H]32 [Compound 61811] | 0.91 | −2.8 |  |  | 
CC(C)C(C)C=CC(C)C1CCC2C3=CC=C4CC(O)CCC4(C)C3CCC21C (stereo not shown) [Compound 62791] | 0.93 | −9.1 |  |  | 
CS(=O)(=O)c1nc(N)nc2nc[nH]c12 [Compound 63446] | 0.76 | 4.3 |  |  | 
N#Cc1cn([C@@H]2O[C@H](CO)[C@@H](O)[C@H]2O)c2ncnc(N)c12 [Compound 63701] |  |  | −3.8 | 0.98 | 
Cl.Nc1ccn([C@@H]2O[C@H](CO)[C@@H](O)[C@@H]2O)c(=O)n1 [Compound 63878] |  |  | 8.3 | 0.89 | 
Nc1ncnc2c1ncn2[C@@H]1O[C@H](CO)C[C@H]1O [Compound 63984] | 1.11 | −0.8 |  |  | 
CC(C)CCCCCCCCCCCCC(=O)NCC(=O)N[C@@H]1[C@@H](O)[C@H](O)[C@@H](Nc2ncnc3nc[nH]c23)O[C@H]1[C@@H](O)CO [Compound 65104] |  |  | −22.3 | 1.01 | 
NC(=O)c1cn(C2OC(CO)C(O)C2O)c2ncnc(N)c12 (stereo not shown) [Compound 65346] | 0.92 | 0.0 |  |  | 
CC1OC1C(=O)C1(O)C(C)C(O)C23OC2(C(O)c2c(O)cccc2C3=O)C1O (stereo not shown) [Compound 65380] |  |  | 11.3 | 1.03 | 
NC(=O)C#CC(N)=O [Compound 65381] | 0.96 | 14.1 |  |  | 
OC[C@H]1O[C@@H](n2cnc3cncnc32)[C@H](O)[C@@H]1O [Compound 65423] | 1.12 | 2.0 |  |  | 
O=C(Nc1ccc2c(c1)oc(=O)c1ccccc12)C(Cl)Cl [Compound 65937] | 1.01 | −9.8 |  |  | 
CCCCC(/C=N/N=C(N)N)CC.Cc1cc(O)c(C(C)C)cc1S(=O)(=O)O [Compound 66300] | 1.21 | 2.2 |  |  | 
CCCc1c(Cl)nc(Cl)nc1Cl [Compound 66914] | 0.91 | −0.8 |  |  | 
CC[C@]1(O)C[C@H]2CN(CCc3c([nH]c4ccccc34)[C@@](C(=O)OC)(c3cc4c(cc3OC)N(C=O)[C@H]3[C@@](O)(C(=O)OC)[C@H](OC(C)=O)[C@]5(CC)C=CCN6CC[C@]43[C@@H]65)C2)C1 [Compound 67574] | 0.96 | −16.1 |  |  | 
COc1cc(-c2cc(=O)c3c(OC)c(OC)c(OC)c(OC)c3o2)cc(OC)c1OC [Compound 67580] |  |  | −27.4 | 1.12 | 
O=C(O)c1ccccc1-c1ccccc1C(=O)Nc1ccc2c(c1)Cc1ccccc1-2 [Compound 67690] | 1.16 | −9.5 |  |  | 
COc1cc(C[C@H]2c3cc(OC)c(OC)cc3CCN2C)c(Oc2cc3c(cc2OC)-c2c(OC)c(OC)cc4c2[C@H](C3)N(C)CC4)cc1OC [Compound 68075] | 1.02 | 23.1 |  |  | 
[O-][n+]1ccccc1[S-].[O-][n+]1ccccc1[S-].[Zn+2] [Compound 68093] | 0.90 | 19.5 |  |  | 
COc1ccc2[nH]c3c(C)c4ccncc4c(C)c3c2c1 [Compound 69187] | 0.22 | 99.2 |  |  | 
Cl.Cl.Cl.Cl.NCCCNCCCCNCCCN [Compound 69852] | 1.06 | −8.6 |  |  | 

Compound | Int.* (Ratio) (Interference) [1] | Inh. (%) (Inhibition) (MBHA with DNA substrate) | Inh. (%) (Inhibition) (MBHA with a DNA substrate) | Int.* (Ratio) (Interference) [2] | Inh. (%) (Inhibition) (MBHA with DNA substrate, 20 µM)
Nc1ncnc2c1ncn2C1OC(CO)C(O)C1O (stereo not shown) [Compound 70422] | 0.85 |  |  |  | 33.9
COC(=O)C1c2cc3c(c(O)c2C(OC2OC(C)C(OC)C(C)(OC)C2OC)CC1(C)O)C(=O)c1c(O)cc2c(c1C3=O)OC1OC2(C)C(O)C(N(C)C)C1O (stereo not shown) [Compound 70845] | 0.59 | 84.4 |  |  | 
Cc1cc2c(c3oc(C4(C)OC4C4OC4C)cc(=O)c13)C(=O)c1c(O)c(C3CC(C)(N(C)C)C(O)C(C)O3)cc(C3CC(N(C)C)C(O)C(C)O3)c1C2=O (stereo not shown) [Compound 70929] | 0.20 | 32.1 |  |  | 
COc1ccc(OC)c(-c2cc(=O)c3c(OC)c(OC)c(OC)c(OC)c3o2)c1 [Compound 71300] | 1.12 | 2.2 |  |  | 
Nc1nc(N)c(-c2cccc(C(F)(F)F)c2)c(Cc2cccc(C(F)(F)F)c2)n1 [Compound 71669] | 1.06 | 12.4 |  |  | 
Nc1nc(=S)c2ncn([C@@H]3C[C@H](O)[C@@H](CO)O3)c2[nH]1 [Compound 71851] |  |  | 10.2 | 0.94 | 
Nc1ncnc2c1nnn2[C@@H]1O[C@H](CO)[C@@H](O)[C@H]1O [Compound 72961] |  |  | 8.5 | 0.98 | 
CC(=O)C1=C(O)C2(O)C(=O)c3c(c(C)c4ccc(C)c(O)c4c3O)CC2C(N)C1=O.CCCCCCCCCCCCOS(=O)(=O)O (stereo not shown) [Compound 73495] |  |  | −5.1 | 1.01 | 
Cl.NC(N)=N/N=C(\c1ccc(Cl)cc1)C1CC1 [Compound 74420] |  |  | −6.1 | 1.10 | 
O=C(Nc1ccc(Sc2ccc(N=Nc3c(O)c(S(=O)(=O)O)cc4cc(S(=O)(=O)O)ccc34)cc2)cc1)c1ccc(N=Nc2c(O)ccc3c(S(=O)(=O)O)cc(S(=O)(=O)O)cc23)cc1 [Compound 76027] |  |  | −5.5 | 0.85 | 
CC1=Nc2ccccc2/C1=C\c1c(C)[nH]c2ccccc12 [Compound 76747] | 1.14 | −1.2 |  |  | 
C[C@]12C=CC(=O)C=C1[C@@H](F)C[C@H]1[C@@H]3CC[C@](O)(C(=O)CO)[C@@]3(C)C[C@H](O)[C@@]12F [Compound 77021] |  |  | 9.8 | 1.00 | 
CCCCOc1ccc(NC(N)=Nc2ccc(Cl)cc2)cc1 [Compound 78365] | 0.98 | 4.7 |  |  | 
Cc1ccc([N+](=O)[O-])cc1NC(=O)c1cccc([N+](=O)[O-])c1O [Compound 79451] | 0.98 | −11.9 |  |  | 
Cc1ccc(NC(=O)c2cccc([N+](=O)[O-])c2O)c(C)c1 [Compound 79456] | 0.97 | −14.5 |  |  | 
Cc1cc(N(CCCl)CCCl)ccc1/C=N/NC(=O)Cc1cc(=O)oc2cc(O)ccc12 [Compound 79688] |  |  | 7.5 | 0.97 | 
CN(C)c1ccc(/C=C2/C=Cc3ccccc32)cc1 [Compound 80087] |  |  | −7.0 | 1.17 | 
O=C(CC(=O)C(F)(F)F)c1csc2ccccc12 [Compound 80396] | 1.12 | −10.6 |  |  | 
COc1cc(OC)c(OC)cc1/C=C/c1ccnc2ccccc12 [Compound 80756] | 0.97 | 1.2 |  |  | 
Cc1ccc(NC(=O)c2cccc([N+](=O)[O-])c2O)c([N+](=O)[O-])c1 [Compound 82025] |  |  | 10.4 | 0.94 | 
CCOC(C)C(C=NNC(N)=S)=NNC(N)=S (stereo not shown) [Compound 82116] |  |  | −6.7 | 1.10 | 
N[C@@H](CSC(c1ccccc1)(c1ccccc1)c1ccccc1)C(=O)O [Compound 83265] |  |  | −22.5 | 0.98 | 
BrCCC[P+](c1ccccc1)(c1ccccc1)c1ccccc1.[Br-] [Compound 84074] |  |  | −31.4 | 1.11 | 
C=C1C(=O)O[C@@H]2C[C@@H](C)[C@@H]3C=CC(=O)[C@@]3(C)[C@@H](O)[C@H]12 [Compound 85236] | 1.20 | 0.4 |  |  | 
O=[N+]([O-])c1cccc2c(N=Nc3ccc4ccccc4c3O)c(O)cc(S(=O)(=O)[O-])c12.[Na+] [Compound 85561] | 0.90 | 68.8 |  |  | 
